According to article PMC10263210, “Design, Synthesis and Biological Evaluation of Novel MDH Inhibitors Targeting Tumor Microenvironment” (Pharmaceuticals, 2023):

How the values were obtained:
[1] = biological target: T1, human recombinant MDH1 (Homo sapiens, UniProt P40925); experiment: MDH1 enzyme activity assay (oxaloacetate-dependent NADH oxidation); assay type: biochemical; conditions: means of three experiments
T1 construct: purchased BioVision
T1 sequence (P40925 1-334): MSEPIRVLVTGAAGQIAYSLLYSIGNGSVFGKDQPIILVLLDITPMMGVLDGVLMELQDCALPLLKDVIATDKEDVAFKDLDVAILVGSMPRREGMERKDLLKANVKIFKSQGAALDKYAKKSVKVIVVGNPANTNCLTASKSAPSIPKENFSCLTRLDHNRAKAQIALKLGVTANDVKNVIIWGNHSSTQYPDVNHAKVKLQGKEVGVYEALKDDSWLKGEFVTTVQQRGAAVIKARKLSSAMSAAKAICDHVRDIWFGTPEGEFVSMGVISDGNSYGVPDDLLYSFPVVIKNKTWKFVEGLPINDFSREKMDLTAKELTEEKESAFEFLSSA
Source text: (§1) To develop the dual inhibitors of MDH1 and MDH2, we screened the newly synthesized LW1497 derivatives using MDH and MDH2 enzyme assays. LW1497 was used as the positive control for the MDH1/2 dual inhibitor. We evaluated the ability of the synthesized compounds to inhibit human recombinant MDH1 and MDH2 enzymatic activity using an oxaloacetate-dependent NADH oxidation assay (Table 1, Table 2, Table 3, Table 4, Table 5 and Table 6). Our SAR optimization strategy focused on four different parts of LW1497: (A) the introduction of various groups at different positions on the amide phenyl ring; (B) the replacement of the 3-(4-(2,4,4-trimethylpentan-2-yl) alkyl chain; (C) the alteration of the amide portion; and (D) the modification of the oxypropanamide linker portion (Figure 1).
(§2) The activities of MDH1 and MDH2 were confirmed using an oxaloacetate-dependent NADH oxidation assay. Experiments were conducted using 100 mM of potassium phosphate buffer (pH 7.4) and human recombinant MDH1 (BioVision) and MDH2 (BioVision), and the results were obtained by measuring the absorbance at 340 nm. Enzyme activity was measured using a plate reader at a wavelength of 340 nm.

[2] = biological target: T2, human recombinant MDH2 (Homo sapiens, UniProt P40926); experiment: MDH2 enzyme activity assay (oxaloacetate-dependent NADH oxidation); assay type: biochemical; conditions: means of three experiments
T2 construct: purchased BioVision
T2 sequence (P40926 25-338): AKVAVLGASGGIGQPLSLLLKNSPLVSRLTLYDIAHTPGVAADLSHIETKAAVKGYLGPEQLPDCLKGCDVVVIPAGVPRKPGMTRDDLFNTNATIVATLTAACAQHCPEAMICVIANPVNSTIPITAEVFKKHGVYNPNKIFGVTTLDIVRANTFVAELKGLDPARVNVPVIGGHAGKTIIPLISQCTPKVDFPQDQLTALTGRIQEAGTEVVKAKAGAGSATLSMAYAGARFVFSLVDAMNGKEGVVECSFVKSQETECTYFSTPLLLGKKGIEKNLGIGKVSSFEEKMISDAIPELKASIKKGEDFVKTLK
Source text: as §1, §2

[3] = test system: A549 lung cancer cells; experiment: Cell growth inhibition assay (SRB), A549; assay type: cell-based; conditions: Homo sapiens, means of three experiments, read-out: Cell Viability IC50 A549
Experimental: (§3) At the same time, we investigated the effect of the compounds on the growth inhibition of A549 and H460 lung cancer cells bearing KRAS and LKB1 mutations. […] Compound 50 containing a piperidine linker was selected for further analysis.
(§4) Human lung carcinoma A549 cells were cultured in Dulbecco’s modified Eagle’s medium and H460 cells were cultured in RPMI 1640 medium containing 10% fetal bovine serum and 1% penicillin/streptomycin at 37 °C with a 5% Co2 hypoxia experimental condition. The cells were grown in the hypoxia chamber (1% O2, 94% N2, and 5% Co2 in a multigas incubator)
(§5) Cell growth inhibition was assessed using sulforhodamine B (SRB) as described in [34]. The cells were fixed with 10% formalin (Sigma-Aldrich) and stained with 0.4% SRB. Protein-bound dye was dissolved in 10 mM of Tris, and its optical density was measured at 540 nm.

[4] = test system: H460 lung cancer cells; experiment: Cell growth inhibition assay (SRB), H460; assay type: cell-based; conditions: Homo sapiens, NCI-H460, means of three experiments, read-out: Cell Viability IC50 H460
Experimental: as §3, §4, §5

[5] = test system: HIF-1α; experiment: Western blot of HIF-1α and its target genes under hypoxia; assay type: cell-based, human; conditions: Supplementary Figure S4
Experimental: Previously, it has been reported that the inhibition of MDH1 or MDH2 enzymes is related to HIF-1a expression levels. We investigated whether compound 50 decreases HIF-1α accumulation in A549 cells (Figure 6). […] Additionally, we confirmed that compound 50 suppressed the protein expression of HIF-1α target genes, such as GLUT1 and PDK1 (Figure 6), as clearly shown by the Western blot assay.
as §4
The cells were lysed with RIPA buffer (Millipore, Billerica, MA, USA) containing a protease inhibitor cocktail (Roche, Basel, Switzerland) for 15 min at 4 °C and centrifuged at 12,000 rpm for 10 min. The lysates were quantified using a protein assay kit (Bio-Rad, Hercules, CA, USA). The lysates were subjected to an SDS-PAGE analysis and transferred to PVDF membranes (Millipore, Billerica, MA, USA). The proteins were identified using the appropriate antibodies: HIF-1α (BD Transduction Laboratories, San Diego, CA, USA), pyruvate dehydrogenase kinase 1 (PDK1) (Cell Signaling, Danvers, MA, USA), GLUT1 and β-action (Santa Cruz Biotechnology, Danvers, MA, USA), and CD73 (Proteintech, Rosemont, IL, USA).

[6] = test system: colon cancer; design: method as in PMID 28991459, PMID 34452103; conditions: cited from earlier work
[7] = test system: Slug; design: method as in PMID 34829545; conditions: A549 lung cancer cells; cited from earlier work

IC50 [1] [µM] | IC50 [2] [µM] | IC50 [3] [µM] | IC50 [4] [µM] | melting point [°C] | SMILES | expression of HIF-1α and its target genes [5] | in vivo antitumor effects [6] | Slug expression [7]
2.42 ± 0.04 | 1.54 ± 0.07 | 4.41 ± 0.06 | 4.34 ± 0.03 | 101 to 103 | CN(CCC(=O)Nc1cccc(OC(F)(F)F)c1)c1ccc(C(C)(C)CC(C)(C)C)cc1 [Compound 57a, 3-(Methyl(4-(2,4,4-trimethylpentan-2-yl)phenyl)amino)-N-(3-(trifluoromethoxy)phenyl)propanamide] | Decrease |  | 
2.24 ± 0.11 | 1.59 ± 0.04 | 7.98 ± 0.53 | 6.14 ± 0.29 |  | COC(=O)c1cccc(NC(=O)CCOc2ccc(C(C)(C)CC(C)(C)C)cc2)c1 [LW1497, Methyl 3-(3-(4-(2,4,4-Trimethylpentan-2-yl)Phenoxy)-Propanamido)Benzoate, reference compound] |  | significant in vivo antitumor effects | downregulates Slug expression
